Where two headings read alike, the source gives them in different places.

For data set [1] the following is noted: pKa of sulfonamide amino group of inhibitor; cited from earlier work.
Data set [2] concerns the target T1, CA VI (Homo sapiens, UniProt P23280).
T1 construct: made in house; host or cells: E. coli
As to conditions: FTSA, pH 7.0, 37 °C; read-out: Kd_obs CA VI; cited from earlier work.

For data set [3], the target named is T2, CA VI-mimic (CA II mutant A65T, N67Q, F130Y, V134Q, L203T) (Homo sapiens, UniProt P00918, A65T/F130Y/L203T/N67Q/V134Q).
T2 construct: encoding full length CA II (1-260), was used in site-directed mutagenesis; made in house; host or cells: E. coli BL21(DE3)
As to the kind of experiment: Fluorescent thermal shift assay (FTSA), inhibitor binding to CA VI-mimic. As to conditions: for difference between Kd_obs and Kd_intr for CA VI-mimic / Kd: FTSA; for difference between Kd_obs and Kd_intr for CA VI-mimic: 37 °C; for Kd: read-out: Kd_obs CA VI-mimic.

The target in a further data set is T3, CA II (Homo sapiens, UniProt P00918).
T3 construct: encoding full length CA II (1-260), was used in site-directed mutagenesis; made in house; host or cells: E. coli
To be noted: FTSA, pH 7.0, 37 °C; read-out: Kd_obs CA II; cited from earlier work.

For data set [4], the target named is T1, CA VI. Put plainly: Stopped-flow CO2 hydration assay (SFA), inhibition of CA VI. The data set is classed as biochemical.
[5] abbreviates: SFA pH 7.5, measured at 23 °C, extrapolated to 37 °C by van't Hoff equation, read-out: Kd_obs CA VI by SFA (in parentheses).
[6] abbreviates: SFA, pH 7.5, 23 °C, read-out: Kd_obs CA VI by SFA.

T1 sequence (P23280 18-308): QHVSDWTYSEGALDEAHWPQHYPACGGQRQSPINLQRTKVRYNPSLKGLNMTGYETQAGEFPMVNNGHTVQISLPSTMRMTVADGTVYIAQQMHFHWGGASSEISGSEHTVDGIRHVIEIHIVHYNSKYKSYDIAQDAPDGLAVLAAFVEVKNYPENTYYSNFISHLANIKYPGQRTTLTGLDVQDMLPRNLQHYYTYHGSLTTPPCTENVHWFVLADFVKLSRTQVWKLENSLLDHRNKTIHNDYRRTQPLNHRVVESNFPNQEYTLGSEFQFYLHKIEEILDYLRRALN

For the molecule `NS(=O)(=O)C(F)(F)F` [Inhibitor 1], the pKa_SA in data set [1] was 6.02.

On to `CCOc1ccc2nc(S(N)(=O)=O)sc2c1` [Inhibitor 2], for which, in data set [1], the pKa_SA is 7.82.

In the case of `CC(=O)/N=c1/sc(S(N)(=O)=O)nn1C` [Inhibitor 3], the pKa_SA in data set [1] was 6.86.

Take `NS(=O)(=O)c1c(F)c(F)c(F)c(F)c1F` [Inhibitor 4]: the Kd on CA VI [2] is 430 nM. Further, the pKa_SA in data set [1] was 8.12.

As to `NS(=O)(=O)c1c(F)c(F)c(N2CCOCC2)c(F)c1F` [Inhibitor 5], the Kd at CA VI [2] was 1100 nM. Further, the pKa_SA in data set [1] is listed as 8.61.

Turning to `NS(=O)(=O)c1c(F)c(F)c(SCCO)c(F)c1F` [Inhibitor 6], the pKa_SA in data set [1] is recorded as 8.14.

As for `NNc1c(F)c(F)c(S(N)(=O)=O)c(F)c1F` [Inhibitor 7], the Kd at CA VI [2] is 1000 nM. Moreover, in data set [1], the pKa_SA is 8.84.

With `NS(=O)(=O)c1c(F)c(F)c(NCc2ccccc2)c(F)c1F` [Inhibitor 8], the Kd at CA VI [2] was 1200 nM. Moreover, the pKa_SA in data set [1] is 8.47.

As to `NS(=O)(=O)c1c(F)c(F)c(Sc2ccccc2)c(F)c1F` [Inhibitor 9], the Kd at CA VI [2] was 200 nM. For the same molecule, in data set [1], the pKa_SA was 7.80.

Regarding `NS(=O)(=O)c1c(F)c(F)c(S(=O)(=O)CCO)c(F)c1F` [Inhibitor 10], the pKa_SA in data set [1] is recorded as 7.28. For the same molecule, the “difference between Kd_obs and Kd_intr for CA VI-mimic” value (shortened to “difference between Kd_obs and Kd_intr”) in data set [3] is “lower than 10 fold”.

Consider `NS(=O)(=O)c1c(F)c(F)c(S(=O)(=O)CCO)c(F)c1NCc1ccccc1` [Inhibitor 11], for which the Kd was 130 nM on CA VI [2]; 83 nM at CA II; 140 nM in data set [3] (pH 7.0, 37 °C). Also, in data set [1], the pKa_SA is given as 7.85.

`NS(=O)(=O)c1c(F)c(F)c(Sc2nc(-c3ccccc3)c(-c3ccccc3)[nH]2)c(F)c1F` [Inhibitor 12]: the Kd on CA VI [2] was 140 nM. In addition, the pKa_SA in data set [1] is listed as 7.69.

`NS(=O)(=O)c1c(F)c(F)c(Sc2nc3ccccc3s2)c(F)c1F` [Inhibitor 13]: on CA VI [2], the Kd is 200 nM. Further, the pKa_SA in data set [1] is listed as 7.83.

Regarding `Cc1cc(C)nc(Sc2c(F)c(F)c(S(N)(=O)=O)c(F)c2F)n1` [Inhibitor 14], the Kd on CA VI [2] was 1000 nM; on CA VI [4] (setting [5]), 630 nM; on CA VI [4] (setting [6]), 290 nM. Also, in data set [1], the pKa_SA is listed as 8.02.

On to `NS(=O)(=O)c1c(F)c(F)c(SCCc2ccccc2)c(F)c1F` [Inhibitor 15], for which the Kd at CA VI [2] is 400 nM. For the same molecule, the pKa_SA in data set [1] is 8.05.

As to `NS(=O)(=O)c1ccc(SCCc2ccccc2)cc1` [Inhibitor 16], the Kd on CA VI [2] is 1100 nM. In addition, the pKa_SA in data set [1] is on record as 10.1. For the same molecule, in data set [3], the “difference between Kd_obs and Kd_intr” value is on record as 2500 fold.

As for `NS(=O)(=O)c1c(F)c(F)c(SCCc2ccccc2)c(F)c1N1CCOCC1` [Inhibitor 17], the Kd (at CA VI [2]; in data set [3]) was 100000 nM each time. In addition, in data set [1], the pKa_SA is on record as 8.67.

On to `NS(=O)(=O)c1c(F)c(F)c(S(=O)(=O)c2ccccc2)c(F)c1F` [Inhibitor 18], for which the Kd on CA VI [2] was 160 nM. The pKa_SA in data set [1] was 7.07. For the same molecule, the “difference between Kd_obs and Kd_intr” value in data set [3] is “lower than 10 fold”.

For `NS(=O)(=O)c1c(F)c(F)c(SCCC(=O)O)c(F)c1F` [Inhibitor 19], the Kd at CA VI [2] is 500 nM. In data set [1], the pKa_SA was 7.97.

On to `CC(C)Nc1c(F)c(SCCc2ccccc2)c(F)c(F)c1S(N)(=O)=O` [Inhibitor 20], for which the Kd on CA VI [2] was 3300 nM; in data set [3] (pH 7.0, 37 °C) it was 2500 nM. Also, the pKa_SA in data set [1] is on record as 8.67.

For the molecule `COc1ccc(CNc2c(F)c(SCCc3ccccc3)c(F)c(F)c2S(N)(=O)=O)cc1OC` [Inhibitor 21], the Kd on CA VI [2] is 20000 nM; at CA II, 1800 nM; in data set [3] (pH 7.0, 37 °C), 3300 nM. In data set [1], the pKa_SA is reported as 8.67.

As to `CCCSc1c(F)c(F)c(S(N)(=O)=O)c(F)c1F` [Inhibitor 22], on CA VI [2], the Kd is 140 nM. In addition, the pKa_SA in data set [1] is 8.15.

`CCCSc1ccc(S(N)(=O)=O)cc1` [Inhibitor 23]: the Kd on CA VI [2] was 830 nM; on CA VI [4] (setting [5]), 3900 nM; on CA VI [4] (setting [6]), 1800 nM. For the same molecule, the pKa_SA in data set [1] is 10.2. Besides, the “difference between Kd_obs and Kd_intr” value in data set [3] is recorded as 3200 fold.

Take `COc1ccc(CNc2c(F)c(SCCO)c(F)c(F)c2S(N)(=O)=O)cc1OC` [Inhibitor 24]: the Kd on CA VI [2] is 11000 nM; on CA II, 1300 nM; in data set [3] (pH 7.0, 37 °C), 5000 nM. In data set [1], the pKa_SA was 8.67.

For the molecule `NS(=O)(=O)c1c(F)c(F)c(S(=O)(=O)CCO)c(NC2CCCCCCC2)c1F` [Inhibitor 25], in data set [1], the pKa_SA is 8.01.

As for `NS(=O)(=O)c1c(F)c(F)c(S(=O)(=O)CCc2ccccc2)c(F)c1F` [Inhibitor 26], the Kd at CA VI [2] was 140 nM. The pKa_SA in data set [1] was 7.22. The “difference between Kd_obs and Kd_intr” value in data set [3] is listed as “lower than 10 fold”.

As for `NS(=O)(=O)c1c(F)c(F)c(S(=O)(=O)CCc2ccccc2)c(NC2Cc3ccccc3C2)c1F` [Inhibitor 27], the Kd at CA VI [2] is 2000 nM; at CA II, 35 nM; in data set [3] (pH 7.0, 37 °C), 1000 nM. Besides, the pKa_SA in data set [1] is given as 7.87.

On to `NS(=O)(=O)c1c(F)c(F)c(S(=O)(=O)CCc2ccccc2)c(NCc2ccccc2)c1F` [Inhibitor 29], for which the Kd was 110 nM at CA VI [2] and 200 nM in data set [3] (pH 7.0, 37 °C). The pKa_SA in data set [1] is recorded as 7.87.

For the molecule `NS(=O)(=O)c1ccc(SCCO)cc1` [Inhibitor 30], in data set [1], the pKa_SA is listed as 9.96.

As to `NS(=O)(=O)c1c(F)c(F)c(S(=O)(=O)CCc2ccccc2)c(N[C@H](c2ccccc2)[C@H](O)c2ccccc2)c1F` [Inhibitor 31], the Kd at CA VI [2] was 1000 nM; on CA II, 33 nM; in data set [3] (pH 7.0, 37 °C) it was 2000 nM. Besides, the pKa_SA in data set [1] is on record as 7.87. Moreover, the “weakening of intrinsic binding to CA VI-mimic relative to comparison compound” value in data set [3] (Kd_intr, 30 vs 23, 6 vs 22, 19 vs 22, 31 vs 26) stood at 9 fold.

Consider `NS(=O)(=O)c1c(F)c(F)c(SCc2ccccc2)c(F)c1F` [Inhibitor 32], for which the Kd on CA VI [2] is 330 nM. Besides, the pKa_SA in data set [1] is 8.53. In addition, in data set [3] (Kd_intr), the “stronger intrinsic binding to CA VI-mimic than inhibitor 9” value was determined as 4 fold and the “stronger intrinsic binding to CA VI-mimic than inhibitor 15” value was 2 fold.

Regarding `CCOC(=O)c1cnc(SCC(=O)c2ccc(Cl)c(S(N)(=O)=O)c2)[nH]c1=O` [Inhibitor 33], the pKa_SA in data set [1] is reported as 8.90.

Regarding `NS(=O)(=O)c1ccc(C(=O)CSc2ccccc2)cc1Cl` [Inhibitor 34], the Kd on CA VI [2] is 1100 nM; at CA II it was 5.6 nM; in data set [3] (pH 7.0, 37 °C) it was 330 nM. The pKa_SA in data set [1] is reported as 8.70.

Consider `Cc1cc(C)nc(SCC(=O)c2cccc(S(N)(=O)=O)c2)n1` [Inhibitor 35], for which the pKa_SA in data set [1] is listed as 9.40.

With `CCc1cnc(SCC(=O)c2ccc(S(N)(=O)=O)c(Cl)c2)nc1` [Inhibitor 36], the pKa_SA in data set [1] is 8.90.

Take `CCCc1cnc(SCC(=O)c2ccc(S(N)(=O)=O)c(Cl)c2)nc1` [Inhibitor 37]: the pKa_SA in data set [1] was 8.90.

Consider `CCCc1cnc(SCC(=O)c2ccc(S(N)(=O)=O)cc2)nc1` [Inhibitor 38], for which the pKa_SA in data set [1] is 9.40.

As for `Cc1cc(=O)[nH]c(SCC(=O)c2ccc(S(N)(=O)=O)c(Cl)c2)n1` [Inhibitor 39], the pKa_SA in data set [1] was 8.90.

Turning to `NS(=O)(=O)c1cccc(C(=O)Cn2cnc3ccccc32)c1` [Inhibitor 40], the Kd was 6700 nM at CA VI [2]; 3600 nM on CA II; 3300 nM in data set [3] (pH 7.0, 37 °C). The pKa_SA in data set [1] is listed as 9.60.

`NS(=O)(=O)c1ccc(C(=O)Cn2cnc3ccccc32)cc1Cl` [Inhibitor 41]: the Kd at CA VI [2] was 3300 nM. Further, in data set [1], the pKa_SA is recorded as 8.30.

As to `NS(=O)(=O)c1ccc(C(=O)Cn2c(Cc3ccccc3)nc3ccccc32)cc1Cl` [Inhibitor 42], the Kd was 1400 nM on CA VI [2] and 330 nM in data set [3] (pH 7.0, 37 °C). The pKa_SA in data set [1] was 8.70.

For `NS(=O)(=O)c1cccc(C(=O)Cn2c(Cc3ccccc3)nc3ccccc32)c1` [Inhibitor 43], the Kd at CA VI [2] was 10000 nM; in data set [3] (pH 7.0, 37 °C), 3300 nM. For the same molecule, in data set [1], the pKa_SA is given as 9.60.

In the case of `NS(=O)(=O)c1cccc(C(=O)CSc2nc3ccccc3s2)c1` [Inhibitor 44], the Kd on CA VI [2] is 3300 nM; at CA II it was 140 nM; in data set [3] (pH 7.0, 37 °C), 500 nM. Further, the pKa_SA in data set [1] is 9.60.

For the molecule `C=CCNc1nc(-c2ccc(S(N)(=O)=O)c(Cl)c2)cs1` [Inhibitor 46], the Kd was 17000 nM on CA VI [2]; 100 nM on CA II; 1100 nM in data set [3] (pH 7.0, 37 °C). For the same molecule, the pKa_SA in data set [1] is recorded as 9.40.

These data come from paper PMC6722136, “Engineered Carbonic Anhydrase VI-Mimic Enzyme Switched the Structure and Affinities of Inhibitors” (Scientific Reports, 2019).
